Measured values: ChEMBL document CHEMBL3244263, “Derivatives of 1,2,3,11a-tetrahydro-5H-pyrrolo[2,1-c][1,4]benzodiazepine-5,11(10H)-dione as anxiolytic agents” (J Med Chem, 1978)
The source made the active and inactive calls. No cut-off for these calls is given here.

Columns and labels:
Rattus norvegicus [1] = assay: Anxiolytic activity in po dosed rat assessed as protection against pentylenetetrazole-induced seizures administered in 2% starch; format: functional
Rattus norvegicus [2] = species: Rattus norvegicus; assay: Drug metabolism in rat treated with 10-methyl-2,3-dihydro-1H-benzo[e]pyrrolo[1,2-a][1,4]diazepine-5,11(10H,11aH)-dione; format: ADME, organism-based; settings: in vivo
Rattus norvegicus [3] = species: Rattus norvegicus; assay: Toxicity in rat assessed as depression; format: organism-based; settings: in vivo
Rattus norvegicus [4] = species: Rattus norvegicus; assay: Drug metabolism in rat assessed as 2,3-dihydro-1H-benzo[e]pyrrolo[1,2-a][1,4]diazepine-5,11(10H,11aH)-dione formation; format: ADME, organism-based; settings: in vivo
Rattus norvegicus [5] = species: Rattus norvegicus; assay: Drug metabolism in rat assessed as dihydroxylated product formation; format: ADME, organism-based; settings: in vivo
Rattus norvegicus [6] = species: Rattus norvegicus; assay: Drug metabolism in rat assessed as 3,11a-dihydroxy-10-methyl-2,3-dihydro-1H-benzo[e]pyrrolo[1,2-a][1,4]diazepine-5,11(10H,11aH)-dione formation by GC-MS/NMR analysis; format: ADME, organism-based; settings: in vivo
Rattus norvegicus [7] = species: Rattus norvegicus; assay: Drug metabolism in rat assessed as monohydroxylated product formation; format: ADME, organism-based; settings: in vivo
Rattus norvegicus [8] = species: Rattus norvegicus; assay: Drug metabolism in rat assessed as aliphatic hydroxylated product formation; format: ADME, organism-based; settings: in vivo
Rattus norvegicus [9] = species: Rattus norvegicus; assay: Anxiolytic activity in thirsty rat by increased conflict responding test; format: functional, organism-based
Mus musculus = species: Mus musculus; assay: Anxiolytic activity in mouse assessed as suppression of pentylenetetrazole-induced convulsion; format: functional, organism-based
Homo sapiens = species: Homo sapiens; assay: Anxiolytic activity in human; format: functional, organism-based
Canis familiaris = species: Canis familiaris; assay: Anxiolytic activity in dog assessed as suppression of pentylenetetrazole-induced convulsion; format: functional, organism-based; settings: Canis lupus familiaris
Squirrel monkey = assay: Anxiolytic activity in squirrel monkey by conflict responding test; format: functional, organism-based; settings: Saimiri sciureus
[10] = Rattus norvegicus, po, read-out: ED50

CN1C(=O)C2CCCN2C(=O)c2ccccc21 (stereo in doubt; 2) gave an ED50 (Rattus norvegicus [1]) of 20.2 mg/kg.

With O=C1Nc2ccc(F)cc2C(=O)N2CCCC12 (configuration not stated) the ED50 (Rattus norvegicus [1]; [10]) was 23 mg/kg.

In the case of CN1C(=O)C2(O)CCC(O)N2C(=O)c2ccccc21 (configuration not stated), the Drug metabolism (Rattus norvegicus [2]) was “metabolite_detected”.

CN1C(=O)C2CCCN2C(=O)c2cc(F)ccc21 (single isomer, unassigned; (+)) showed an ED50 (Rattus norvegicus [1]; [10]) of 3.9 mg/kg.

For CN1C(=O)C2CCCN2C(=O)c2ccccc21 (single isomer, unassigned; (-)), the ED50 (Rattus norvegicus [1]) was >200 mg/kg.

For CN1C(=O)C2CCCN2C(=O)c2ccccc21 (single isomer, unassigned; (+)) [listing 1 of 2 here], the Activity (Rattus norvegicus [3]) was “Non-toxic”, the ED50 (Rattus norvegicus [1]) was 9.9 mg/kg and the Drug metabolism (Rattus norvegicus [4]) was “metabolite_detected”. For the same compound, the Drug metabolism (Rattus norvegicus [5]) was “metabolite_detected”, the Drug metabolism (Rattus norvegicus [6]) was “metabolite_detected” and the Drug metabolism (Rattus norvegicus [7]) was “metabolite_detected”. For the same compound, the Drug metabolism (Rattus norvegicus [8]) was “metabolite_detected”.

In the case of CN1C(=O)CN=C(c2ccccc2)c2cc(Cl)ccc21 [DIAZEPAM], the Activity (Rattus norvegicus [3]) was “Toxic”.

Work on O=C1Nc2ccccc2C(=O)N2CCCC12 (single isomer, unassigned; (+)) yielded an ED50 (Rattus norvegicus [1]; [10]) of 35 mg/kg.

With CCCC(C)(COC(N)=O)COC(N)=O [MEPROBAMATE] the ED50 (Rattus norvegicus [1]; [10]) was 21.5 mg/kg.

With CN1C(=O)C2CCCN2C(=O)c2ccccc21 (single isomer, unassigned; (+)) [listing 2 of 2 here] the Activity (Rattus norvegicus [9]) was “Active”, the Activity (Mus musculus) was “Active” and the Activity (Homo sapiens) was “inactive”. For the same compound, the Activity (Canis familiaris) was “Active” and the Activity (Squirrel monkey) was “Active”.

CNC1=Nc2ccc(Cl)cc2C(c2ccccc2)=[N+]([O-])C1 [CHLORDIAZEPOXIDE] was tested, and the Activity (Rattus norvegicus [3]) was “Toxic” and the ED50 (Rattus norvegicus [1]; [10]) was 2.5 mg/kg.
